Experimental data from the NIST ThermoML archive (doi:10.1021/acs.jced.7b00106).
± gives the expanded uncertainty stated by the source.

Conditions: Hot wire method

FC(F)(F)/C=C/Cl [(E)-1-chloro-3,3,3-trifluoroprop-1-ene]
Conditions | thermal conductivity [W/m/K]
303.31 K, 62940 kPa, Liquid | 0.1059 ± 0.0034
303.32 K, 65424 kPa, Liquid | 0.1066 ± 0.0032
303.34 K, 383 kPa, Liquid | 0.08114 ± 0.0055
303.35 K, 4071 kPa, Liquid | 0.08347 ± 0.0037
303.36 K, 56409 kPa, Liquid | 0.1043 ± 0.0068
303.38 K, 8070 kPa, Liquid | 0.08486 ± 0.0049
303.38 K, 16014 kPa, Liquid | 0.08858 ± 0.0029
303.39 K, 11885 kPa, Liquid | 0.08675 ± 0.0028
303.4 K, 295 kPa, Liquid | 0.08173 ± 0.0038
303.4 K, 48041 kPa, Liquid | 0.1012 ± 0.0031
303.42 K, 48413 kPa, Liquid | 0.1013 ± 0.0031
303.44 K, 7814 kPa, Liquid | 0.0847 ± 0.0032
303.47 K, 7846 kPa, Liquid | 0.0848 ± 0.0036
303.5 K, 136 kPa, Gas | 0.01133 ± 0.00041
303.5 K, 62957 kPa, Liquid | 0.1058 ± 0.0039
303.5 K, 65425 kPa, Liquid | 0.1067 ± 0.0032
303.51 K, 132 kPa, Gas | 0.01137 ± 0.00041
303.51 K, 41983 kPa, Liquid | 0.09892 ± 0.0043
303.51 K, 47179 kPa, Liquid | 0.1008 ± 0.0031
303.53 K, 122 kPa, Gas | 0.01133 ± 0.00041
303.54 K, 4064 kPa, Liquid | 0.08281 ± 0.0041
303.54 K, 56404 kPa, Liquid | 0.1037 ± 0.0036
303.56 K, 36213 kPa, Liquid | 0.09672 ± 0.0034
303.59 K, 293 kPa, Liquid | 0.08112 ± 0.0046
303.6 K, 48039 kPa, Liquid | 0.101 ± 0.0031
303.61 K, 48415 kPa, Liquid | 0.101 ± 0.0031
303.71 K, 41980 kPa, Liquid | 0.09862 ± 0.003
303.71 K, 47178 kPa, Liquid | 0.1004 ± 0.0032
303.76 K, 36210 kPa, Liquid | 0.09644 ± 0.0033
303.97 K, 136 kPa, Gas | 0.01134 ± 0.00041
304 K, 121 kPa, Gas | 0.01134 ± 0.00041
304.01 K, 131 kPa, Gas | 0.01133 ± 0.00041
304.5 K, 135 kPa, Gas | 0.01137 ± 0.00041
304.51 K, 122 kPa, Gas | 0.01139 ± 0.00041
304.53 K, 130 kPa, Gas | 0.01127 ± 0.0004
305.03 K, 135 kPa, Gas | 0.0114 ± 0.00042
305.05 K, 121 kPa, Gas | 0.0114 ± 0.00041
305.16 K, 131 kPa, Gas | 0.01092 ± 0.00039
305.6 K, 134 kPa, Gas | 0.01142 ± 0.00041
305.62 K, 122 kPa, Gas | 0.01143 ± 0.00041
305.74 K, 132 kPa, Gas | 0.01105 ± 0.0004
311.53 K, 157 kPa, Gas | 0.01177 ± 0.00042
311.84 K, 158 kPa, Gas | 0.01185 ± 0.00042
311.93 K, 134 kPa, Gas | 0.01187 ± 0.00042
312.17 K, 165 kPa, Gas | 0.01181 ± 0.00042
312.19 K, 159 kPa, Gas | 0.01198 ± 0.00043
312.22 K, 98 kPa, Gas | 0.012 ± 0.00043
312.23 K, 134 kPa, Gas | 0.01169 ± 0.00042
312.26 K, 135 kPa, Gas | 0.01202 ± 0.00043
312.37 K, 191 kPa, Gas | 0.012 ± 0.00043
312.46 K, 165 kPa, Gas | 0.01175 ± 0.00042
312.5 K, 133 kPa, Gas | 0.0117 ± 0.00042
312.53 K, 160 kPa, Gas | 0.01191 ± 0.00043
312.56 K, 98 kPa, Gas | 0.01197 ± 0.00043
312.64 K, 135 kPa, Gas | 0.01197 ± 0.00043
312.67 K, 191 kPa, Gas | 0.01194 ± 0.00043
312.76 K, 166 kPa, Gas | 0.01173 ± 0.00042
312.79 K, 131 kPa, Gas | 0.01152 ± 0.00041
312.81 K, 96 kPa, Gas | 0.01168 ± 0.00042
312.82 K, 133 kPa, Gas | 0.01159 ± 0.00042
312.93 K, 97 kPa, Gas | 0.01203 ± 0.00043
312.94 K, 162 kPa, Gas | 0.01192 ± 0.00043
312.97 K, 190 kPa, Gas | 0.01196 ± 0.00043
313.06 K, 134 kPa, Gas | 0.01201 ± 0.00043
313.06 K, 195 kPa, Gas | 0.01197 ± 0.00043
313.07 K, 167 kPa, Gas | 0.01173 ± 0.00042
313.11 K, 96 kPa, Gas | 0.0116 ± 0.00041
313.11 K, 130 kPa, Gas | 0.0115 ± 0.00041
313.15 K, 132 kPa, Gas | 0.01155 ± 0.00041
313.31 K, 97 kPa, Gas | 0.01207 ± 0.00043
313.35 K, 195 kPa, Gas | 0.01196 ± 0.00043
313.36 K, 163 kPa, Gas | 0.01197 ± 0.00043
313.42 K, 96 kPa, Gas | 0.01157 ± 0.00041
